Columns and labels:
Settings in all cases: temperature: 37 °C
[1] = tested on: Candida glabrata ZIM 2385 (RPMI); assay: Bliss independence sum of statistically significant ΔE (measured minus predicted growth inhibition) over checkerboard surface (fraction (sum of ΔE; 1 = 100%)); higher = more synergy
[2] = tested on: Candida glabrata ZIM 2344 (RPMI); assay: as above
[3] = tested on: Saccharomyces cerevisiae ZIM 2566 (RPMI); assay: as above
[4] = tested on: Saccharomyces cerevisiae ZIM 2247 (RPMI); assay: as above
[5] = tested on: Candida glabrata ZIM 2389 (RPMI); assay: as above
[6] = tested on: Saccharomyces cerevisiae ZIM 2255 (RPMI); assay: as above
[7] = tested on: Candida glabrata ZIM 2365 (RPMI); assay: as above
[8] = tested on: Candida glabrata ZIM 2382 (RPMI); assay: as above
[9] = tested on: Candida glabrata ZIM 2369 (RPMI); assay: as above
[10] = tested on: Saccharomyces cerevisiae ZIM 2558 (RPMI); assay: as above
[11] = tested on: Saccharomyces cerevisiae ZIM 2260 (RPMI); assay: as above
[12] = tested on: Saccharomyces cerevisiae ZIM 2269 (RPMI); assay: as above
[13] = tested on: Candida glabrata ZIM 2385 (RPMI); assay: FICI maximum (fractional inhibitory concentration index, Loewe) (dimensionless); higher = less synergy / more antagonism
Procedure: (§1)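 CLSI M27-A3 checkerboard broth microdilution of an immunomodulatory drug (or amoxicillin) combined with an antifungal against S. cerevisiae and C. glabrata isolates. Growth was read as OD600 after incubation at 37 °C (48 h for the reported MICs). Reported quantities are the FICI (Loewe: MIC50 for azoles and immunomodulators, MIC90 for AMB; ≤0.5 synergy, ≥4 antagonism), as minimum and maximum over the surface, and the Bliss-independence sum of statistically significant ΔE (positive = synergy). Clinical isolates were tested in RPMI; C. glabrata ATCC 2001 and its pdr1Δ mutant were tested in YPD.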

[14] = tested on: Candida glabrata ZIM 2344 (RPMI); assay: as above
Procedure: as §1

[15] = tested on: Saccharomyces cerevisiae ZIM 2566 (RPMI); assay: as above
Procedure: as §1

[16] = tested on: Saccharomyces cerevisiae ZIM 2247 (RPMI); assay: as above
Procedure: as §1

[17] = tested on: Candida glabrata ZIM 2389 (RPMI); assay: as above
Procedure: as §1

[18] = tested on: Saccharomyces cerevisiae ZIM 2255 (RPMI); assay: as above
Procedure: as §1

[19] = tested on: Candida glabrata ZIM 2365 (RPMI); assay: as above
Procedure: as §1

[20] = tested on: Candida glabrata ZIM 2382 (RPMI); assay: as above
Procedure: as §1

[21] = tested on: Candida glabrata ZIM 2369 (RPMI); assay: as above
Procedure: as §1

[22] = tested on: Saccharomyces cerevisiae ZIM 2558 (RPMI); assay: as above
Procedure: as §1

[23] = tested on: Saccharomyces cerevisiae ZIM 2260 (RPMI); assay: as above
Procedure: as §1

[24] = tested on: Saccharomyces cerevisiae ZIM 2269 (RPMI); assay: as above
Procedure: as §1

[25] = tested on: Candida glabrata ZIM 2344 (RPMI); assay: FICI minimum (fractional inhibitory concentration index, Loewe) (dimensionless); higher = less synergy / more antagonism
Procedure: as §1

[26] = tested on: Saccharomyces cerevisiae ZIM 2269 (RPMI); assay: as above
Procedure: as §1

| SMILES | Bliss independence sum [1] | Bliss independence sum [2] | Bliss independence sum [3] | Bliss independence sum [4] | Bliss independence sum [5] | Bliss independence sum [6] | Bliss independence sum [7] | Bliss independence sum [8] | Bliss independence sum [9] | Bliss independence sum [10] | Bliss independence sum [11] | Bliss independence sum [12] | FICI maximum [13] | FICI maximum [14] | FICI maximum [15] | FICI maximum [16] | FICI maximum [17] | FICI maximum [18] | FICI maximum [19] | FICI maximum [20] | FICI maximum [21] | FICI maximum [22] | FICI maximum [23] | FICI maximum [24] | FICI minimum [25] | FICI minimum [26] |
| --- | --- | --- | --- | --- | --- | --- | --- | --- | --- | --- | --- | --- | --- | --- | --- | --- | --- | --- | --- | --- | --- | --- | --- | --- | --- | --- |
| CC1(C)S[C@@H]2[C@H](NC(=O)[C@H](N)c3ccc(O)cc3)C(=O)N2[C@H]1C(=O)O [amoxicillin] + CCC(C)n1ncn(-c2ccc(N3CCN(c4ccc(OCC5COC(Cn6cncn6)(c6ccc(Cl)cc6Cl)O5)cc4)CC3)cc2)c1=O [itraconazole] | -0.894 | 3 | -0.787 | -3.04 | 0.79 | 0.234 | 3.78 | -0.629 | 0.313 | 0.394 | 0.613 | 0.212 | 1.25 | 0.375 | 2.12 | 1.25 | 1.25 | 1.25 | 1.25 | 2.25 | 1.25 | 0.75 | 1.25 | 1.25 | 0.0703 | 1 |
| CC1(C)S[C@@H]2[C@H](NC(=O)[C@H](N)c3ccc(O)cc3)C(=O)N2[C@H]1C(=O)O [amoxicillin] + C[C@@H]1[C@H](O)[C@@H](C)/C=C/C=C/C=C/C=C/C=C/C=C/C=C/[C@H](O[C@@H]2O[C@H](C)[C@@H](O)[C@H](N)[C@@H]2O)C[C@@H]2O[C@](O)(C[C@@H](O)C[C@@H](O)[C@H](O)CC[C@@H](O)C[C@@H](O)CC(=O)O[C@H]1C)C[C@H](O)[C@H]2C(=O)O [amphotericin B] | 2.19 | 1.9 | -0.244 | -2.91 | 2.34 | -2.26 | 2.12 | 0.631 | -0.462 | -2.25 | 0.295 | 2.97 | 1.25 | 1.25 | 4.25 | 1.25 | 1.25 | 1.25 | 1.25 | 1.25 | 1.25 | 8.78 | 1.25 | 1.25 | 0.133 | 1.01 |
| CN(Cc1cnc2nc(N)nc(N)c2n1)c1ccc(C(=O)N[C@@H](CCC(=O)O)C(=O)O)cc1 [methotrexate] + CCC(C)n1ncn(-c2ccc(N3CCN(c4ccc(OCC5COC(Cn6cncn6)(c6ccc(Cl)cc6Cl)O5)cc4)CC3)cc2)c1=O [itraconazole] | -0.777 | -0.688 | 1.34 | 0.35 | 0.179 | 1.41 | 2.18 | -1.18 | -0.495 | 1.01 | -0.71 | -0.796 | 2.16 | 1.16 | 1.16 | 1.16 | 2.04 | 1.08 | 1.16 | 2.16 | 1.16 | 1.08 | 2.04 | 1.16 | 1 | 1 |
| CN(Cc1cnc2nc(N)nc(N)c2n1)c1ccc(C(=O)N[C@@H](CCC(=O)O)C(=O)O)cc1 [methotrexate] + C[C@@H]1[C@H](O)[C@@H](C)/C=C/C=C/C=C/C=C/C=C/C=C/C=C/[C@H](O[C@@H]2O[C@H](C)[C@@H](O)[C@H](N)[C@@H]2O)C[C@@H]2O[C@](O)(C[C@@H](O)C[C@@H](O)[C@H](O)CC[C@@H](O)C[C@@H](O)CC(=O)O[C@H]1C)C[C@H](O)[C@H]2C(=O)O [amphotericin B] | -1.71 | 1.26 | -3.15 | -2.39 | -2.52 | 0.262 | -0.0967 | -0.569 | 0.0762 | -1.12 | 2 | 0.225 | 2.16 | 1.08 | 1.16 | 1.16 | 1.16 | 1.5 | 1.16 | 1.16 | 1.16 | 2.16 | 1.16 | 1.16 | 0.656 | 1 |
| CN(Cc1cnc2nc(N)nc(N)c2n1)c1ccc(C(=O)N[C@@H](CCC(=O)O)C(=O)O)cc1 [methotrexate] + OC(Cn1cncn1)(Cn1cncn1)c1ccc(F)cc1F [fluconazole] | -0.819 | 1.94 | -4.52 | -0.857 | 0.272 | -0.754 | 0.394 | -1.36 | 0.22 | 8.35 | -0.0461 | -1.86 | 2.16 | 0.656 | 2.16 | 1.16 | 1.16 | 1.08 | 1.16 | 2.16 | 1.16 | 1.04 | 2 | 1.08 | 0.505 | 0.656 |
